Measured values reported in patent publication US10183919B2 (priority 2014, dated 2019).
Structures can show the parent of a compound that is named as a salt. Where two headings read alike, the source gives them in different places.

How the values were obtained:
Human MOR = molecular target: T1, Human MOR (Homo sapiens, UniProt P35372); test: cell-based
T1 construct: expressed in transfected cells; host or cells: HEK-293T
Text: (§1) Transfection. Human or mouse MOR cDNA was transfected alongside GαoB with RLuc8 inserted at position 91 (GαoB-RLuc8), Gβ1 (β1), and Gγ2 fused to the full-length mVenus at its N terminus (mVenus-γ2) into HEK-293T cells (5×10^6 cells/plate) in 10-cm dishes using PEI (Polysciences Inc.; Warrington, Pa.) in a 1:1 ratio diluted in Opti-MEM (Life Technologies Corp.; Grand Island, N.Y.) to assay for G protein activation as described previously (Rives, M.-L. et al. J. Biol. Chem. 2012, 287, 27050-4; Negri, A.; Rives, M.-L.; Caspers, M. J. et al. J. Chem. Inf. Model. 2013, 53, 521-526). Cells were maintained in the Dulbecco's Modified Eagle Medium (high glucose #11965; Life Technologies) supplemented with 10% FBS (Premium Select, Atlanta Biologicals; Atlanta, Ga.) and 100 U/mL penicillin and 100 μg/mL streptomycin (#15140, Life Technologies). After 24 hours the media was changed, and the experiment was performed 24 hours later (48 hours after transfection).
(§2) BRET. Transfected cells were dissociated and resuspended in phosphate-buffered saline (PBS). Approximately 200,000 cells/well were added to a black-framed, white well 96-well plate (#60050; Perkin Elmer; Waltham, Mass.). The microplate was centrifuged and the cells were resuspended in PBS. Then 5 μM of the luciferase substrate coelenterazine H was added to each well for 5 minutes. Following coelenterazine H addition, ligands were added and the BRET signal was measured at 5 minutes on a PHERAstar FS plate reader. Quantification of the BRET signal required calculating the ratio of the light emitted by the energy acceptor, mVenus (510-540 nm), over the light emitted by the energy donor, RLuc8 (485 nm). […] Dose response curves were fit using three-parameter logistics equation in GraphPad Prism 6.

Mouse MOR = molecular target: T2, Mouse MOR (Mus musculus, UniProt P42866); test: BRET G protein activation assay, HEK-293T cells transfected with mouse MOR; assay type: cell-based
T2 construct: expressed in transfected cells; host or cells: HEK-293T
Text: as §1, §2

[1] = Pharmacokinetics and brain distribution after a single intraperitoneal dose; details: i.p. 10 mg/kg, male C57BL/6 mice
Protocol: For each compound, a group of twenty four male mice were administered with a solution formulation of the drug in normal saline intraperitoneally at a dose of 10 mg/kg. Blood samples (approximately 60 μL) were collected under light isoflurane anesthesia from the retro orbital plexus at 0.08, 0.25, 0.5, 1, 2, 4, 8 and 24 hr. Plasma samples were separated by centrifugation of whole blood and stored below −70° C. until bioanalysis. Immediately after collection of blood, brain samples were collected from each mouse at 0.08, 0.25, 0.5, 1, 2, 4, 8 and 24 hr. Brain samples were homogenized using ice-cold phosphate buffer saline (pH 7.4) and homogenates were stored below −70° C. until analysis. Total homogenate volume was three times the tissue weight. All samples were processed for analysis by protein precipitation using acetonitrile (ACN) and analyzed with fit-for-purpose LC/MS/MS method (LLOQ-1.01 ng/mL in plasma and brain). Pharmacokinetic parameters were calculated using the non-compartmental analysis tool of Phoenix WinNonlin® (Version 6.3).

[2] = BRET G protein activation, HEK-293T, mean ± SEM of independent trials, read-out: EC50 Mouse MOR

T1 sequence (P35372 whole entry): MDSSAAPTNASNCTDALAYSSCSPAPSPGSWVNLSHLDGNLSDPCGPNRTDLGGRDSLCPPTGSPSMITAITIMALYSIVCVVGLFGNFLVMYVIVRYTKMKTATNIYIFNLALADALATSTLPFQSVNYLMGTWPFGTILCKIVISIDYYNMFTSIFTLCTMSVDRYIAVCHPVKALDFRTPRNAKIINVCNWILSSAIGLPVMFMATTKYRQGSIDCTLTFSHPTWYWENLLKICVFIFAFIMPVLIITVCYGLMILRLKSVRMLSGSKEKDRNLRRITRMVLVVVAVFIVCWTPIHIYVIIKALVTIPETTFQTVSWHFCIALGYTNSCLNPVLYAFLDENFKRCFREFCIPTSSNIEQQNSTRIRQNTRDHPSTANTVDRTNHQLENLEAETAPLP
T2 sequence (P42866 whole entry): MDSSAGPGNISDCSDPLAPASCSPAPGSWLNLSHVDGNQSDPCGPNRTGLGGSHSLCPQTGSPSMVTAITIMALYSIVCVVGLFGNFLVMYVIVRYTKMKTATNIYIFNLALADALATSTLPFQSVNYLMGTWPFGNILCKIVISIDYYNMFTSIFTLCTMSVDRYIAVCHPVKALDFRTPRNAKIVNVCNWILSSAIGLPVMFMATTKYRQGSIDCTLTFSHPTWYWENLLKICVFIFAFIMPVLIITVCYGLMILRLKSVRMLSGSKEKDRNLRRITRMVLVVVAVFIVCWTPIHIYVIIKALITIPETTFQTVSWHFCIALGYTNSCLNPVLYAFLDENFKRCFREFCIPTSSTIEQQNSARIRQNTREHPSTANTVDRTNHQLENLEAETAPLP

For `CNC1c2ccccc2N(C)S(=O)(=O)c2cc(Cl)ccc21` (centres unmarked) [compound 20, 3-Chloro-6-methyl-11-(methylamino)-6,11-dihydrodibenzo [c,f][1,2]thiazepine 5,5-dioxide], the EC50 (Human MOR) was less than 10 µM and the EC50 (Mouse MOR; [2]) was less than 10 µM.
Work on `CCCNC1c2ccccc2N(C)S(=O)(=O)c2cc(Cl)ccc21` (centres unmarked) [compound 21, 3-Chloro-6-methyl-11-(propylamino)-6,11-dihydrodibenzo [c,f][1,2]thiazepine 5,5-dioxide] yielded an EC50 (Human MOR) of less than 10 µM and an EC50 (Mouse MOR; [2]) of less than 10 µM.
`CC(C)NC1c2ccccc2N(C)S(=O)(=O)c2cc(Cl)ccc21` (centres unmarked) [compound 22, 3-Chloro-11-(isopropylamino)-6-methyl-6,11-dihydrodibenzo [c,f][1,2]thiazepine 5,5-dioxide] showed an EC50 (Human MOR) of less than 10 µM and an EC50 (Mouse MOR; [2]) of less than 10 µM.
In the case of `COCCCNC1c2ccccc2N(C)S(=O)(=O)c2cc(Cl)ccc21` (centres unmarked) [compound 23, 3-Chloro-11-((3-methoxypropyl)amino)-6-methyl-6,11-dihydrodibenzo [c,f][1,2]thiazepine 5,5-dioxide], the EC50 (Human MOR) is reported as 0.264 ± 0.0853 µM, the AUClast ([1]; brain) is reported as 335.03 ng·h/g and the CL ([1]; brain) is reported as 260.44 mL/min/kg. The MRTlast ([1]; brain) was 1.27 h, the T1/2 ([1]; brain) was 5.12 h and the Tmax ([1]; brain) was 0.08 h. The “half-life compared with tianeptine” value ([1]; Tables 3 and 4) was “much longer half-life”, the “systemic exposure (AUC) compared with tianeptine” value ([1]; Tables 3 and 4) was “higher systemic exposure (AUC)” and the AUClast ([1]; plasma) was 3058.80 ng·h/mL. For the same molecule, the CL ([1]; plasma) was 44.27 mL/min/kg, the Cmax ([1]; plasma) was 1535.74 ng/mL and the MRTlast ([1]; plasma) was 2.29 h. It also gave a T1/2 ([1]; plasma) of 3.93 h, a Tmax ([1]; plasma) of 0.25 h and an EC50 (Mouse MOR; [2]) of 1.2 ± 0.03 µM.
Molecule `COCCCNC1c2ccccc2N(C)S(=O)(=O)c2cc(SC)ccc21` (centres unmarked) [compound 44, 11-((3-Methoxypropyl)amino)-6-methyl-3-(methylthio)-6, 11-dihydrodibenzo[c,f][1,2]thiazepine 5,5-dioxide] has an EC50 (Human MOR) of less than 10 µM and an EC50 (Mouse MOR; [2]) of less than 10 µM.
In the case of `CCOC(=O)CCCCCCNC1c2ccccc2N(C)S(=O)(=O)c2cc(SC)ccc21` (centres unmarked) [compound 45, Ethyl 7-((6-methyl-3-(methylthio)-5,5-dioxido-6,11-dihydrodibenzeo[c,f] [1,2] 1, 2lazepin-11-yl)amino) heptanotate], the EC50 (Human MOR) is reported as less than 10 µM and the EC50 (Mouse MOR; [2]) is reported as less than 10 µM.
In the case of `CN1c2ccccc2C(NCCCCCCC(=O)O)c2ccccc2S1(=O)=O` (centres unmarked) [compound 80, 7-((6-Methyl-5,5-dioxido-6,11-dihydrodibenzo[c,f][1,2]thiazepin-11-yl)amino)heptanoic acid hydrochloride salt], the EC50 (Human MOR) is reported as less than 10 µM and the EC50 (Mouse MOR) is reported as less than 10 µM.
For `CN1c2ccccc2C(NCCCCCCC(=O)O)c2ccc(Cl)cc2S1(=O)=O` (centres unmarked) [tianeptine, reference compound], the EC50 (Human MOR) was 0.194 ± 0.07 µM and the EC50 (Mouse MOR) was 0.641 ± 0.12 µM.
